Consider 8 compounds from patent US20220017520A1, “MACROCYCLIC COMPOUND AS CDK INHIBITOR, PREPARATION METHOD THEREFOR, AND USE THEREOF IN MEDICINE” (Keythera (Suzhou) Pharmaceuticals Co. Ltd., priority 2018, published 2022).

Read-outs that look alike come from different tables or passages of the source.

One series deals with CDK4/D3 (Homo sapiens, UniProt P11802). The series can be described thus: Inhibitory activity on CDK4 kinase by Caliper Mobility Shift method. The settings on record: CDK4/D3, 28° C. for 5 hours. Type of series: biochemical. The protocol: Determination of Inhibitory Effect on CDK4/Cyclin D1
CDK4/D3, sequence (P11802 whole entry, species assumed): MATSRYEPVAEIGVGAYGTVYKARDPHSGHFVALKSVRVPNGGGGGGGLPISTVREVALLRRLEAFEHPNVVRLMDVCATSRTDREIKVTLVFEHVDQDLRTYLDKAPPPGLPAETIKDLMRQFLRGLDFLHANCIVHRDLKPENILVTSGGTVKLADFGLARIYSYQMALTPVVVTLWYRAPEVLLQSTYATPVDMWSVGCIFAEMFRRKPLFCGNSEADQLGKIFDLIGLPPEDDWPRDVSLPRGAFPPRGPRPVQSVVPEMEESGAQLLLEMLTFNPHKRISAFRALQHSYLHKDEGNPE
CDK4/D3, sequence (P30281 whole entry partner, species assumed): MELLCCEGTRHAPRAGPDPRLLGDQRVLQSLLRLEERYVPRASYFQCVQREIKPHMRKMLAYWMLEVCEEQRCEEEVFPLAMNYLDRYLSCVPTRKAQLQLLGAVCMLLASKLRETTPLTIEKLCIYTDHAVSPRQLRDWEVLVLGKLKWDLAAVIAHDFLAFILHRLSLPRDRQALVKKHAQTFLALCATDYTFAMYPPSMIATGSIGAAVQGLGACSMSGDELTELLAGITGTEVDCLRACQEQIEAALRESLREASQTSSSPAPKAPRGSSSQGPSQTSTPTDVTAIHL
The determination of IC50 of CDK4/Cyclin D1 was conducted according to the following process. A 96-well filter plate (Millipore MADVN6550) was used. The total volume was 0.1 ml, containing buffer solution A (20 mM TRIS (tris[hydroxymethyl]aminomethane) (pH7.4), 50 mM NaCl, 1 mM dithiothreitol, 10 mM MgCl2), 2 μM ATP (containing […][32P]ATP), 20 ng CDK4, […] retinoblastoma protein and the test compound diluted in buffer solution A in an appropriate ratio. Buffer solution A alone without the test compound was used as the control without inhibitory effect. Buffer solution A containing excess EDTA was used to determine the background 32P level in the absence of enzymatic activity. All components except ATP were added to the wells, and the plate was shaked on a plate mixer for 2 minutes. [32P]ATP was added to initiate the reaction, and the plate was incubated at 25° C. for 15 minutes. 0.1 ml of 20% trichloroacetic acid (TCA) was added to stop the reaction. The plate was kept at 4° C. for at least 1 hour to allow the substrate to precipitate. The wells were washed five times with 0.2 ml of 10% TCA, and the binding of 32P was measured using a R plate counter (wallac Inc., Gaithersburg, Md.). IC50 of the test compound was determined by median effect method (Chou, T-C and Talalay P. Applications of the median effect principle for the assessment of low-dose risk of carcinogens and for the quantitation of synergism and antagonism of chemotherapeutic agents. In New Avenues in Developmental Cancer Chemotherapy (Eds. Harrap, K. T. and Connors, T. A.), pp. 37-64. Academic Press, New York, 1987).
(§1) Experimental method: Inhibitory activity on CDK4/6 kinase was determined by Caliper Mobility Shift method
1) Preparation of 1-fold CDK4 kinase buffer solution
800 μL of 1000 mM HEPES stock solution (pH 7.5) and 40 μL of 10% Triton X-100 stock solution were added to 39160 μL of ultra pure water, and the resulting solution was mixed well.
(§2) 25 mL of 4% Coating Reagent #3 (provided with the 12-sipper chip used in Caliper device) stock solution, 50 mL of 1000 mM HEPES stock solution (pH 7.5), 50 mL of 0.5 M EDTA stock solution and 0.25 mL of 30% Brij-35 stock solution were added to 374.75 mL of ultra pure water, and the resulting solution was mixed well.
1) Preparation of 2.5-fold CDK4/D3 kinase solution
7 μL of CDK4/D3 enzyme solution and 9 μL of 1M DTT stock solution were added to 1784 μL of 1-fold CDK4 kinase buffer solution, and the resulting solution was mixed well.
1) Preparation of 2.5-fold CDK4/D3 polypeptide solution
10 µL of 100 mM ATP stock solution, 45 μL of 1M MgCl2 stock solution and 45 μL of FAM-labelled polypeptide 8 were added to 1700 μL of 1-fold CDK4 kinase buffer solution, and the resulting solution was mixed well.
(§3) A 10 mM solution of the test compound in DMSO was diluted with DMSO to obtain a solution with a concentration of 50 μM, which was used as the stock solution. Said stock solution was subjected to 4-fold gradient dilution with DMSO to obtain solutions with a concentration of […], 3.12 μM, 0.78 μM, 0.19 μM, 0.048 μM, 12.2 nM, 3 nM, 0.76 nM and 0.19 nM, respectively. Each of the resulting solution was 10-fold diluted with 1-fold kinase buffer solution to obtain a 5-fold compound solution.
(§4) 1) 5 μL of the prepared 5-fold test compound solution and 10 μL of the prepared 2.5-fold kinase solution were added to the corresponding wells in a 384-well plate, and the plate was incubated at room temperature for 10 minutes.
(§5) 2) 10 μL of the prepared 2.5-fold polypeptide solution was added to the corresponding wells to start the enzymatic reaction, and the plate was incubated at 28° C. for 5 hours.
(§6) 25 μL of stop solution was added to each corresponding well to stop the reaction.
(§7) 8. The data was read by the Caliper device, the inhibition rate was calculated by the following formula, and curve fitting was carried out by GraphPad5.0 software to obtain the IC50 value.

A further series deals with CDK6/D3 (Homo sapiens, UniProt Q00534). The series can be described thus: Inhibitory activity on CDK6 kinase by Caliper Mobility Shift method. Format: biochemical. The settings on record: CDK6/D3, 28° C. for 5 hours. The procedure:
as §1
2) Preparation of 1-fold CDK6 kinase buffer solution
50 mL of 1000 mM HEPES stock solution (pH 7.5) and 50 μL of 30% Brij-35 stock solution were added to 949.95 mL of ultra pure water, and the resulting solution was mixed well.
as §2
2) Preparation of 2.5-fold CDK6/D3 kinase solution 18 μL of CDK6/D3 enzyme solution and 14 μL of 1M DTT stock solution were added to 2768 μL of 1-fold CDK6 kinase buffer solution, and the resulting solution was mixed well.
2) Preparation of 2.5-fold CDK6/D3 polypeptide solution
23 μL of 100 mM ATP stock solution, 75 μL of 1M MgCl2 stock solution and 75 μL of FAM-labelled polypeptide 8 were added to 2827 μL of 1-fold CDK6 kinase buffer solution, and the resulting solution was mixed well.
as §3, §4, §5, §6, §7

In another series the test system is MCF-7 cells. Nature of the series: In vitro cell proliferation assay by BrdU method. Format: cell-based. The settings on record: Homo sapiens, MCF7, 72 hours, 10% FBS. The procedure: In Vitro Cell Inhibitory Activity of the Compound of the Present Invention
Experimental method: Cell proliferation assay was carried out by BrdU method (BrdU cell proliferation assay kit, Cell Signaling Technology Co.)
Preparation of gradient dilution solution of test compound: the 10 mM stock solution of test compound was subjected to 4-fold serial gradient dilution with DMSO to obtain solutions with a concentration of 2.5 mM, […], respectively. 2 μL of DMSO-diluted compound was added to 198 μL of culture medium containing 10% FBS to obtain 10-fold test compound, wherein the maximum concentration of the test compound was 10 μM, the DMSO concentration was 1%, with a total of 7 concentration gradients.
MCF-7 culture medium: DMEM+10% FBS+0.01 mg/mL insulin
(1) Cells grown to 80% (in exponential growth phase) were digested with pancreatin, and were collected by centrifugation. MDA-MB-435S cells and U87MG cells were re-suspended in a FBS-free culture medium, counted and inoculated to a 96-well plate; MDA-MB-435S cells were inoculated at 3000 cells/well/81 μL, and U87MG cells were inoculated at 4000 cells/well/81 μL. MCF-7 cells were resuspended in a culture medium containing 1% FBS, counted and inoculated to a 96-well plate at 4000 cell/well/82 μL. The cells were incubated in a cell incubator at 37° C.
(2) After 24 hours of incubation, FBS (9 μL) was added to each well of the MDA-MB-435S cells and U87MG cells, and 8 μL of FBS was added to each well of the MCF-7 cells, so as to obtain a final FBS concentration of 10%.
(3) A different concentration of 10-fold test compound (10 μL) was added to each well to obtain a final concentration of test compound of 10 μM, 2.5 μM, 625 nM, 156 nM, 39 nM, 9.8 nM or 2.5 nM, respectively, with 3 repeated wells/group, and the cells were incubated at 37° C. for 72 hours.
(4) 10-fold BrdU solution (10 μL) was added to each well, and the cells were incubated in the incubator for 4 hours, followed by discarding the culture medium.
(5) Fixing/denaturation solution (10 μL) was added to each well, and the cells were incubated at room temperature for 30 minutes, followed by discarding the solution.
(6) 1-fold detection antibody solution (100 μL) was added to each well, the cells were incubated at room temperature for 1 hour, followed by discarding the solution, and the cells were washed with 1-fold washing solution (200 μL/well) three times.
(7) 1-fold HRP-labelled secondary antibody solution (100 μL) was added to each well, the cells were incubated at room temperature for 30 minutes, followed by discarding the solution, and the cells were washed with 1-fold washing solution (200 μL/well) three times.
(8) TMB substrate solution (100 μL) was added to each well, and the cells were incubated at room temperature for 30 minutes.
(9) Stop solution (100 μL) was added to each well, and the OD value at 450 nm was measured by a microplate reader.
1) Cell survival rate (%)=(ODtest compound−ODblank control)/(ODnormal cell control−ODblank control)×100%,
2) The data was processed by GraphPad Prism 5 software to obtain the curve and IC50 values.

The conditions of series [1]: amide bond, HATU, dichloromethane, 25.0 °C, 16.0 h.

CDK6/D3, sequence (Q00534 whole entry, species assumed): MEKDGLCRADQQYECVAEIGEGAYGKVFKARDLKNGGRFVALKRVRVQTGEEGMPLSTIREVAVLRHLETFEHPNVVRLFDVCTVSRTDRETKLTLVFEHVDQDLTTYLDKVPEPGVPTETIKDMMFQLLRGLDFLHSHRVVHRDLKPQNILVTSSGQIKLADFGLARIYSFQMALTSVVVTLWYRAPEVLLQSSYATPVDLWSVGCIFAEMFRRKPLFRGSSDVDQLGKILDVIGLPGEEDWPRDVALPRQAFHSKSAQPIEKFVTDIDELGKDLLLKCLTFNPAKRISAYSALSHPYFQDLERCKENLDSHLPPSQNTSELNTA
CDK6/D3, sequence (P30281 whole entry partner, species assumed): as the sequence (P30281 whole entry partner, species assumed) above

A word on the IC50: it is the midpoint of a concentration-inhibition curve. Take `CCN1CCN(Cc2cnc3cc2NC(=O)C[C@H](C)n2c(C)nc4c(F)cc(cc42)-c2nc(ncc2F)N3)CC1` [Example 3, (S)-4^5-((4-Ethylpiperazin-1-yl)methyl)-1^4,2^5-difluoro-1^2,8-dimethyl-1^1H-3,5-diaza-1(6,1)-benzo[d]imidazola-2(4,2)-pyrimidina-4(2,4)-pyridinacyclooctaphan-6-one]: the IC50 on CDK4/D3 amounted to 15 nM; on CDK6/D3 it was 27 nM; in the series with MCF-7 cells, 4120 nM.

Take `CCN1CCN(Cc2cnc3cc2NC(=O)CC2(CC2)n2c(C)nc4c(F)cc(cc42)-c2nc(ncc2F)N3)CC1` [Example 9, 5′-((4-Ethylpiperazin-1-yl)methyl)-4′,5′-difluoro-2′-methylspiro[cyclopropane-1,8′-3,5-diaza-1(6,1)-benzo[d]imidazola-2(4,2)-pyrimidina-4(2,4)-pyridinacyclooctaphan]-6′-one]: the IC50 came out at 5 nM at CDK4/D3 and 12 nM on CDK6/D3.

The compound `CCN1CCN(Cc2cnc3cc2NC(=O)CCn2c(C)nc4c(F)cc(cc42)-c2nc(ncc2F)N3)CC1` [Example 4, 4^5-((4-Ethylpiperazin-1-yl)methyl)-1^4,2^5-difluoro-1^2-methyl-1^1H-3,5-diaza-1(6,1)-benzo[d]imidazola-2(4,2)-pyrimidina-4(2,4)-pyridinacyclooctaphan-6-one] yielded a ring closure, yield of all isomers in series [1] (from CCN1CCN(Cc2cnc(Nc3ncc(F)c(-c4cc(F)c5nc(C)n(CCC(=O)O)c5c4)n3)cc2N)CC1, 18.0 mM) of 7.3%. The IC50 on CDK4/D3 is 0.78 nM; on CDK6/D3, 1.13 nM; in the series on MCF-7 cells it was 132 nM.

In the case of `CCN1CCN(Cc2cnc3cc2NC(=O)C[C@@H](C)n2c(C)nc4c(F)cc(cc42)-c2nc(ncc2F)N3)CC1` [Example 2, (R)-4^5-((4-Ethylpiperazin-1-yl)methyl)-1^4,2^5-difluoro-1^2,8-dimethyl-1^1H-3,5-diaza-1(6,1)-benzo[d]imidazola-2(4,2)-pyrimidina-4(2,4)-pyridinacyclooctaphan-6-one], the ring closure, yield of all isomers in series [1] (from CCN1CCN(Cc2cnc(Nc3ncc(F)c(-c4cc(F)c5nc(C)n([C@H](C)CC(=O)O)c5c4)n3)cc2N)CC1, 13.8 mM) is 7.4%. Moreover, the figures for the IC50 at CDK4/D3, at CDK6/D3 and with MCF-7 cells were 0.49 nM, 0.35 nM and 42 nM, respectively.

Regarding `CCN1CCN(Cc2cnc3cc2NC(=O)CC(C)(C)n2c(C)nc4c(F)cc(cc42)-c2nc(ncc2F)N3)CC1` [Example 8, 4^5-((4-Ethylpiperazin-1-yl)methyl)-1^4,2^5-difluoro-1^2,8,8-trimethyl-1^1H-3,5-diaza-1(6,1)-benzo[d]imidazola-2(4,2)-pyrimidina-4(2,4)-pyridinacyclooctaphan-6-one], the IC50 on CDK4/D3 was found to be 8 nM; on CDK6/D3 it was 10 nM.

`CCN1CCN(Cc2cnc3cc2NCCC(C)n2c(C)nc4c(F)cc(cc42)-c2nc(ncc2F)N3)CC1` (stereo not drawn) [Example 5, 4^5-((4-Ethylpiperazin-1-yl)methyl)-1^4,2^5-difluoro-1^2,8-dimethyl-1^1H-3,5-diaza-1(6,1)-benzo[d]imidazola-2(4,2)-pyrimidina-4(2,4)-pyridinacyclooctaphane]: the IC50 was found to be 21 nM at CDK4/D3 and 14 nM at CDK6/D3.

As to `CCN1CCN(Cc2cnc3cc2NC(=O)CC(C)n2ccc4ccc(cc42)-c2nc(ncc2F)N3)CC1` (stereo not drawn) [Example 7, 4^5-((4-Ethylpiperazin-1-yl)methyl)-2^5-fluoro-8-methyl-1^1H-3,5-diaza-1(6,1)-indola-2(4,2)-pyrimidina-4(2,4)-pyridinacyclo-octaphan-6-one], in series [1] (from CCN1CCN(Cc2cnc(Nc3ncc(F)c(-c4ccc5ccn(C(C)CC(=O)O)c5c4)n3)cc2N)CC1, 14.0 mM), the ring closure, yield of all isomers is 33.3%. Also, the figures for the IC50 at CDK4/D3 and at CDK6/D3 were 1.5 nM and 2.5 nM, respectively.

The compound `CCN1CCN(Cc2cnc3cc2NC(=O)CC(C)n2c(C)nc4c(F)cc(cc42)-c2nc(ncc2F)N3)CC1` (stereo not drawn) [Example 1, 4^5-((4-Ethylpiperazin-1-yl)methyl)-1^4,2^5-difluoro-1^2,8-dimethyl-1^1H-3,5-diaza-1(6,1)-benzo[d]imidazola-2(4,2)-pyrimidina-4(2,4)-pyridinacyclooctaphan-6-one] yielded a ring closure, yield of all isomers in series [1] (from CCN1CCN(Cc2cnc(Nc3ncc(F)c(-c4cc(F)c5nc(C)n(C(C)CC(=O)O)c5c4)n3)cc2N)CC1, 14.0 mM) of 8.3%. For the same compound, the IC50 was determined as 0.7 nM at CDK4/D3, 0.48 nM on CDK6/D3 and 142 nM with MCF-7 cells.
